According to patent US7456170B2, “Triazolobenzodiazepines and their use as vasopressin antagonists” (Pfizer Inc., priority 2004, dated 2008):
Like-named read-outs stand apart in the source and are kept apart here.

Target: human V1A receptor (Homo sapiens, UniProt P37288)
Assay: V1A filter binding assay ([3H]-AVP binding to CHO-hV1A membranes)
Method: 1.0 V1A Filter Binding Assay
Receptor binding assays were performed on cellular membranes prepared from CHO cells stably expressing the human V1A receptor, (CHO-hV1A). The CHO-hV1A cell line was kindly provided under a licensing agreement by Marc Thibonnier, Dept. of Medicine, Case Western Reserve University School of Medicine, Cleveland, Ohio, CHO-hV1A cells were routinely maintained at 37° C. in humidified atmosphere with 5% CO2 in DMEM/Hams F12 nutrient mix supplemented with 10% fetal bovine serum, 2 mM L-glutamine, 15 mM HEPES and 400 μg/ml G418. For bulk production of cell pellets, adherent CHO-hV1A cells were grown to confluency of 90-100% in 850 cm^2 roller bottles containing a medium of DMEM/Hams F12 Nutrient Mix supplemented with 10% fetal bovine serum, 2 mM L-gitidtamine and 15 mM HEPES. Confluent CHO-hV1A cells were washed with phosphate-buffered saline (PBS), harvested into ice cold PBS and centrifuged at 1,000 rpm. Cell pellets were stored at −80° C. until use. […] Protein concentration was determined using Bradford reagent and BSA as a standard.
Protein linearity followed by saturation binding studies were performed on each new batch of membrane. […] Saturation binding studies were then performed using various concentrations of [^3H]-arginine vasopressin, [^3]-AVP (0.05 nM-100 nM) and the Kd and Bmax determined.
Compounds were tested for their effects on [^3H]-AVP binding to CHO-hV1A membranes, (^3H-AVP; specific activity 65.5 Ci/mmol: NEN Life Sciences). […] The plates were sealed and counted on a TopCount Microplate Scintillation Counter (Packard Instruments). Non-specific binding (NSB) was determined using 1 μM unlabelled d(CH2)5Tyr(Me)AVP ([β-mercapto-β,β-cyclopentamethylenepropionyl,0-Me-Tyr^2,Arg^8]-vasopressin) (βMCPVP), (Sigma). The radioligand binding data was analysed using a four parameter logistic equation with the min forced to 0%. […] Specific binding was calculated by subtracting the mean NSB cpm from the mean Total cpm. For test compounds the amount of ligand bound to the receptor was expressed as % bound=(sample cpm−mean NSB cpm)/specific binding cpm×100. […]

[1] = [3H]-AVP binding to CHO-hV1A membranes, screen 1.0, read-out: Ki

Sequence of human V1A receptor (P37288 whole entry): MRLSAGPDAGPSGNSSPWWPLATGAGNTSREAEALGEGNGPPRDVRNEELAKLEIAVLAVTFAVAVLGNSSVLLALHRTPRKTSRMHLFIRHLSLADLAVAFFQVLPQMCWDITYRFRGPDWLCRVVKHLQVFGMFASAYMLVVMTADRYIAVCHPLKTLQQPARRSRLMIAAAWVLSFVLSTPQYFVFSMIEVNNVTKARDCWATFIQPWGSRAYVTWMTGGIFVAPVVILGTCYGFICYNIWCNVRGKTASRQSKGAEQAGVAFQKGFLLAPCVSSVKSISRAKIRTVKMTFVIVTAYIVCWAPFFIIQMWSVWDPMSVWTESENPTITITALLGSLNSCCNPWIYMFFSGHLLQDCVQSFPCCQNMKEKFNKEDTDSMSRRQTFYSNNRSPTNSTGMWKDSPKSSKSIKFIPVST

| SMILES | Ki [1] [pM] | Ki [pM] |
| --- | --- | --- |
| CS(=O)(=O)N1Cc2cc(Cl)ccc2-n2c(nnc2N2CCC(c3ccccc3)CC2)C1 [Example 6, 8-Chloro-5-(methylsulfonyl)-1-(4-phenylpiperidin-1-yl)-5,6-dihydro-4H-[1,2,4]triazolo[4,3-a][1,4]benzodiazepine] | 170 | – |
| CS(=O)(=O)N1Cc2cc(Cl)ccc2-n2c(nnc2N2CCC(c3ccccn3)CC2)C1 [Example 3, 8-Chloro-5-(methylsulfonyl)-1-(4-pyridin-2-ylpiperidin-1-yl)-5,6-dihydro-4H-[1,2,4]triazolo[4,3-a][1,4]benzodiazepine] | – | 620 |
| CN(C)S(=O)(=O)N1Cc2cc(Cl)ccc2-n2c(nnc2N2CCC(c3ccccc3)CC2)C1 [Example 8, 8-Chloro-N,N-dimethyl-1-(4-phenylpiperidin-1-yl)-4H-[1,2,4]triazolo[4,3-a][1,4]benzodiazepine-5(6H)-sulphonamide] | 360 | – |
